Measured values reported in US5888405A, “Methods for controlling biofouling using amino methyl phosphonic acids” (Buckman Laboratories International Inc., priority 1997, dated 1999).
Several values for one entry are separate records, joined by “and”; a condition that tells them apart may be missing. Identical values can stand only once. Like-named read-outs stand apart in the source and are kept apart here.

How the values were obtained:
Format in all cases: cell-based
E. Aerogenes = experiment: Minimum inhibitory concentration, 18 hour Basal Salts test; conditions: for MIC: Klebsiella aerogenes, 18 h
Method: ^1 Minimum inhibitory concentration (MIC) for each compound against
the bacteria E. Aerogenes using an 18 hour Basal Salts test at pH 6 and p

[1] = test system: Bacteria of the genera Bacillus, Flavobacterium, and Pseudomonas; experiment: Bacterial adhesion to submerged slides in bioreactor, Gram Crystal Violet staining, visual biofilm score (Example 3); design: scale not given here; conditions: 100 ppm, acetone, 3 days, pH 7, average of four replicates, control 3-4
Source text: (§1) The following method effectively defines the ability of a chemical compound to inhibit bacterial adhesion, or attack the formation of existing attached microorganisms, on various types of surfaces. As an overview, bioreactors were constructed in which approximately 1 in.×3 in. slides (glass or stainless steel) were fixed to the edge of the bioreactor. The lower ends (approx. 2 in.) of the slides dipped into a bacterial growth medium (pH 7) within the bioreactor which contained a known concentration of the test chemical. Following inoculation with known bacterial species, the test solutions were stirred continuously for 3 days. Unless otherwise indicated in the results below, the medium within the bioreactor was turbid by the end of three days. […] A staining procedure was then used on the slides in order to determine the amount of bacteria attached to the surfaces of the slides.
(§2) The bioreactors comprised a 400 ml glass beaker over which a lid (cover from a standard 9 cm diameter glass petri dish) was placed. With the lid removed, slides of the material of choice were taped at one end with masking tape and suspended inside the bioreactor from the top edge of the beaker. This allows the slides to be submerged within the test medium. Typically, four slides (replicates) were uniformly spaced around the bioreactor. The score presented below are the average of the four replicates. A magnetic stirring bar was placed in the bottom of the unit, the lid positioned, and the bioreactor autoclaved. Two different types of material were used as slides, stainless steel as a metal and glass as a hydrophilic surface.
(§3) The liquid medium utilized in the bioreactors was described previously by Delaquis, et al., "Detachment Of Pseudomonas fluorescens From Biofilms On Glass Surfaces In Response To Nutrient Stress", Microbial Ecology 18:199-210, 1989. The composition of the medium was:
(§4) The medium was autoclaved and then allowed to cool. If a sediment formed in the autoclaved medium, the medium was resuspended by shaking before use.
(§5) Bacteria of the genera Bacillus, Flavobacterium, and Pseudomonas were isolated from a paper mill slime deposit and maintained in continuous culture. The test organisms were separately streaked onto plate count agar and incubated at 30° C. 24 hours. With a sterile cotton swab, portions of the colonies were removed and suspended in sterile water. The suspensions were mixed very well and were adjusted to an optical density of 0.858 (Bacillus), 0.625 (Flavobacterium), and 0.775 (Pseudomonas) at 686 nm.
(§6) Biofilm Production/Chemical Testing: To four separate bioreactors was added 200 ml of the sterile medium prepared above. Chemicals to be evaluated as biodispersants were first prepared as a stock solution (40 mg/2 ml) using either water or a 9:1 acetone:methanol mixture (ac/MeOH) as a solvent. A 1.0 ml aliquot of the stock solution was added to the bioreactor using moderate, continuous magnetic stirring. This provided an initial concentration of 100 ppm for the test compound. One bioreactor (Control) contains no test compound. Aliquots (0.5 ml) from each of the three bacterial suspensions were then introduced into each bioreactor. The bioreactors were then provided with continuous stirring for three days to allow for an increase in bacterial population and deposition of cells onto the surfaces of the slides.
After the test was completed, the slides were removed from the bioreactors and were positioned vertically to permit air drying. The degree of adhesion of bacteria to the test surface was then estimated using a staining procedure. The slides were briefly flamed in order to fix the cells to the surface, and then transferred for two minutes to a container of Gram Crystal Violet (DIFCO Laboratories, Detroit, Mich.). The slides were gently rinsed under running tap water, and then carefully blotted. The degree of bacterial adhesion was then determined by visual examination and subjective scoring of each slide. […]

[2] = test system: Bacteria of the genera Bacillus, Flavobacterium, and Pseudomonas; experiment: Quantitative method of evaluation of bacterial adhesion (crystal violet absorbance, % IBA), Example 4; conditions: for inhibition at 100 ppm: 168 h; for Score (% IBA), inhibition of bacterial adhesion: 100 ppm
Source text: as §1, §2, §3, §4, §5, §6
The test method, construction of bioreactors, bacterial growth medium, preparation of bacterial inocula, and biofilm/chemical testing are the same as those in EXAMPLE 3.
After 48 h or 168 h (1 week) of incubation at 26°-28° C. the slides were removed from the bioreactors and were positioned vertically to […] using a staining procedure. The slides were briefly flamed in order to fix the cells to the surface, and then transferred for one minute to a container of Gram Crystal Violet (DIFCO Laboratories, Detroit, Mich.). […]

[3] = glass slides, acetone, 168 h incubation at 26-28° C., 50% or greater considered effective
[4] = stainless steel (SS) slides, acetone, 168 h incubation at 26-28° C., 50% or greater considered effective

| Compound | MIC (E. Aerogenes; pH 6, pH 6, read-out: Minimum inhibitory concentration (MIC)) | Score (biofilm score, bacterial adhesion) ([1]; glass slides) | inhibition at 100 ppm ([2]; glass slides, acetone, 168 h incubation at 26-28° C., 50% or greater considered effective, read-out: Score (% IBA), inhibition of bacterial adhesion) | inhibition at 100 ppm ([2]; stainless steel (SS) slides, acetone, 168 h incubation at 26-28° C., 50% or greater considered effective, read-out: Score (% IBA), inhibition of bacterial adhesion) | Minimum inhibitory concentration (MIC) (E. Aerogenes; pH 8) | Score (% IBA), inhibition of bacterial adhesion [2, 3] | Score (% IBA), inhibition of bacterial adhesion [2, 4] | MIC (E. Aerogenes; pH 8, read-out: Minimum inhibitory concentration (MIC), pH 8) | Score (biofilm score, bacterial adhesion) ([1]; stainless steel (SS) slides) | inhibition at 100 ppm ([2]; read-out: Score (% IBA), inhibition of bacterial adhesion, glass slides, acetone, 168 h incubation at 26-28° C., 50% or greater considered effective) | inhibition at 100 ppm ([2]; read-out: Score (% IBA), inhibition of bacterial adhesion, stainless steel (SS) slides, acetone, 168 h incubation at 26-28° C., 50% or greater considered effective) | Minimum inhibitory concentration (MIC) (E. Aerogenes; pH 6) |
| --- | --- | --- | --- | --- | --- | --- | --- | --- | --- | --- | --- | --- |
| CCCCCCCCN(CCCCCCCC)CP(=O)(O)O [g, dioctyl amino methyl phosphonic acid] | > 100 µg/mL | 2.0 | 78% | 67% | – | – | – | – | – | – | – | – |
| butyl amino methyl phosphonic acid | – | – | – | – | > 500 | 21 % IBA | 36 % IBA | – | – | – | – | – |
| O=P(O)(O)CN1CCOCC1 [e] | – | 3 | – | – | – | – | – | > 500 µg/mL | 3 and 2.3 | 52% | 33% | – |
| dodecyl amino methyl phosphonic acid | – | – | – | – | > 500 | 43 % IBA | 54 % IBA | – | 3 and 4 | – | – | > 100 |
| hexyl amino methyl phosphonic acid | – | 3.0 | – | – | > 500 | 36 % IBA | 42 % IBA | – | 1.0 and 2.0 | – | – | > 100 |
| octadecyl amino methyl phosphonic acid [f] | – | – | – | – | > 500 | 81 % IBA | 39 % IBA | – | 2.25 and 2.70 | – | – | > 100 |
| decyl amino methyl phosphonic acid | – | 2.25 | – | – | > 500 | 5 % IBA | 62 % IBA | – | 1.25 and 2.3 | – | – | > 100 |
